US9758485B2, “Compounds for controlling arthropods” (priority 2013, dated 2017)
Where two headings read alike, the source gives them in different places.

Assay: logP determination by HPLC on a reversed-phase column (C18), EEC Directive 79/831 Annex V.A8
Assay type: physicochemical
Details: for logP^a): HPLC-MS method a), Table I-T3
[1] = reversed-phase HPLC column (C18), HPLC, reversed-phase C18, acetonitrile/water with formic acid, 55° C., read-out: logP
[2] = HPLC-MS, reversed-phase column (C18)
[3] = reversed-phase HPLC column (C18), HPLC-MS method a), reversed-phase column (C18); read-out: logP^a)
[4] = reversed-phase HPLC column (C18), HPLC-MS, reversed-phase column (C18), read-out: log P

Row | SMILES | chromatographic logP [1] | log P [2] | other results
1 | NNc1c(Cl)cc(C(O)(C(F)(F)F)C(F)(F)F)cc1Cl [2-(3,5-dichloro-4-hydrazinophenyl)-1,1,1,3,3,3-hexafluoropropan-2-ol] | 1.92 | – | –
2 | FC(F)(F)C(F)(c1cnc(-n2cc(Br)cn2)c(Cl)c1)C(F)(F)F [2-(4-bromo-1H-pyrazol-1-yl)-3-chloro-5-(1,1,1,2,3,3,3-heptafluoropropan-2-yl)pyridine] | 4.74 | – | –
3 | Cc1cc(C(F)(C(F)(F)F)C(F)(F)F)cc(Br)c1N [2-bromo-6-methyl-4-heptafluoroisopropylaniline] | 4.38 | – | –
4 | O=C(NC1CC1)c1cc(-c2cnn(-c3ncc(C(F)(C(F)(F)F)C(F)(F)F)cc3Cl)c2)ccc1Cl [2-chloro-5-{1-[3-chloro-5-(1,1,1,2,3,3,3-heptafluoropropan-2-yl)pyridin-2-yl]-1H-pyrazol-4-yl}-N-cyclopropylbenzamide] | 4.08 | – | –
5 | CCc1cc(C(F)(C(F)(F)F)C(F)(F)F)cc(Cl)c1N [2-chloro-6-ethyl-4-heptafluoroisopropylaniline] | 4.67 | – | –
6 | Cc1cc(C(F)(C(F)(F)F)C(F)(F)F)cc(C(F)(F)F)c1N [4-heptafluoroisopropyl-2-methyl-6-trifluoromethylaniline] | 4.67 | – | –
7 | Cc1cc(C(F)(C(F)(F)F)C(F)(F)F)cc(C)c1-n1cc(-c2cc(C(=O)NC3CC3)c(Cl)cc2F)cn1 [I-T3-14] | – | – | logP^a): 4.5
8 | N#CC1(NC(=O)c2cccc(-c3cnn(-c4c(Cl)cc(C(F)(C(F)(F)F)C(F)(F)F)cc4Cl)c3)c2F)CC1 [I-T3-22] | – | – | logP^a): 4.1
9 | O=C(NC1CC1)c1cccc(-c2cnn(-c3ncc(C(F)(F)F)cc3Cl)c2)c1 [I-T3-122] | – | 3.0 | –
10 | CN(C(=O)c1cc(-c2cnn(-c3ccc(C(F)(C(F)(F)F)C(F)(F)F)cc3C(F)(F)F)c2)ccc1Cl)C1CC1 [I-T3-134] | – | 4.9 | –
11 | O=C(NC1CC1)c1cc(-c2cnn(-c3ncc(C(F)(C(F)(F)F)C(F)(F)F)cc3Cl)c2)ccc1Cl [I-T3-152] | – | 4.1 | –
12 | CC[S+]([O-])c1cc(C(F)(C(F)(F)F)C(F)(F)F)cnc1-n1cc(-c2ccc(Cl)c(C(=O)NC3(C#N)CC3)c2)cn1 (stereo not shown) [I-T3-153] | – | 3.7 | –
13 | CCSc1cc(C(F)(C(F)(F)F)C(F)(F)F)cnc1-n1cc(-c2ccc(Cl)c(C(=O)NC3CC3)c2)cn1 [I-T3-156, 2-Chloro-N-cyclopropyl-5-{1-[3-(ethylsulphanyl)-5-(1,1,1,2,3,3,3-heptafluoropropan-2-yl)pyridin-2-yl]-1H-pyrazol-4-yl}benzamide] | 4.69 | – | chromatographic logP [3]: 4.7; chromatographic logP [4]: 4.7
14 | CC[S+]([O-])c1cc(C(F)(C(F)(F)F)C(F)(F)F)cnc1-n1cc(-c2ccc(Cl)c(C(=O)NC3CC3)c2)cn1 (stereo not shown) [I-T3-157, 2-Chloro-N-cyclopropyl-5-{1-[3-(ethylsulphinyl)-5-(1,1,1,2,3,3,3-heptafluoropropan-2-yl)pyridin-2-yl]-1H-pyrazol-4-yl}benzamide] | 3.79 | – | chromatographic logP [3]: 3.8; chromatographic logP [4]: 3.8
15 | NC(=S)C1(NC(=O)c2cc(-c3cnn(-c4c(Cl)cc(C(F)(C(F)(F)F)C(F)(F)F)cc4C(F)(F)F)c3)cnc2Cl)CC1 [I-T3-159] | – | 3.8 | –
16 | CSc1cc(C(F)(C(F)(F)F)C(F)(F)F)cnc1-n1cc(-c2ccc(Cl)c(C(=O)NC3(C#N)CC3)c2)cn1 [I-T3-166] | – | 4.3 | –
17 | N#CC1(NC(=O)c2cc(-c3cnn(-c4c(Cl)cc(C(F)(F)F)cc4[N+](=O)[O-])c3)ccc2Cl)CC1 [I-T3-169] | – | 3.2 | –
18 | CCSc1cc(C(F)(F)F)cc(Cl)c1-n1cc(-c2ccc(Cl)c(C(=O)NC3(C#N)CC3)c2)cn1 [I-T3-170] | – | 3.7 | –
19 | N#CC1(NC(=O)c2cc(-c3cnn(-c4ncc(C(F)(C(F)(F)F)C(F)(F)F)cc4SCC(F)(F)F)c3)ccc2Cl)CC1 [I-T3-171] | – | 4.5 | –
20 | CCSc1cc(C(F)(F)F)cc(Cl)c1-n1cc(-c2ccc(Cl)c(C(=O)NC3CC3)c2)cn1 [I-T3-172] | – | 3.9 | –
21 | N#Cc1cc(C(F)(F)F)cc(Cl)c1-n1cc(-c2ccc(Cl)c(C(=O)NC3CC3)c2)cn1 [I-T3-174] | – | 3.1 | –
